Measured values reported in patent publication US20230136297A1, “Methods Of Treating Fabry Disease In Patients Having A Mutation In The GLA Gene” (Amicus Therapeutics, Inc., priority 2020, published 2023).
Changes are numbered by the printed parent chain.

Columns and labels:
Assay in all cases: α-Gal A activity in lysates of transfected HEK-293 cells ± migalastat (HEK assay)
Format in all cases: cell-based
[1] = biological target: T1, α-Gal A mutant form A160D (Homo sapiens, UniProt P06280, A160D)
T1 construct: expressed in transfected cells; host or cells: HEK-293
T1 sequence (P06280 32-429 A160D): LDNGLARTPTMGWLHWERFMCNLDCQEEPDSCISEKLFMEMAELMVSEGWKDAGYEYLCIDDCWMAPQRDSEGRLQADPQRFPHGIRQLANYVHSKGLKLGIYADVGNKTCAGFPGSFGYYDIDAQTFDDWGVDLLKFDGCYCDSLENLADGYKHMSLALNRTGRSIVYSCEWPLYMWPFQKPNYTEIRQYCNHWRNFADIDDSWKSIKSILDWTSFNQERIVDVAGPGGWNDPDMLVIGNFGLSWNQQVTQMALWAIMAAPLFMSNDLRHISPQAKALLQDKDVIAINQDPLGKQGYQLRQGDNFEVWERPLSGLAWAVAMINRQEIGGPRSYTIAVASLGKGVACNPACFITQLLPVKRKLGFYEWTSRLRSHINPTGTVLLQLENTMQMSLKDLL
Description: (§1) Such mutations or variants are also referred to herein as “HEK assay amenable” mutations or variants.
(§2) The α-Gal A activity is expressed as the nmoles of free 4-MU released per milligram of protein per hour (nmol/mg/hr).

[2] = biological target: T2, α-Gal A mutant form D182G (Homo sapiens, UniProt P06280, D182G)
T2 construct: expressed in transfected cells; host or cells: HEK-293
T2 sequence (P06280 32-429 D182G): T1 sequence (P06280 32-429 A160D) with D129A, D151G
Description: as §1, §2

[3] = biological target: T3, α-Gal A mutant form M290V (Homo sapiens, UniProt P06280, M290V)
T3 construct: expressed in transfected cells; host or cells: HEK-293
T3 sequence (P06280 32-429 M290V): T1 sequence (P06280 32-429 A160D) with D129A, M259V
Description: as §1, §2

α-Gal A mutant form N53Y = biological target: T4, α-Gal A mutant form N53Y (Homo sapiens, UniProt P06280, N53Y)
T4 construct: expressed in transfected cells; host or cells: HEK-293
T4 sequence (P06280 32-429 N53Y): T1 sequence (P06280 32-429 A160D) with N22Y, D129A
Description: as §1, §2

α-Gal A mutant form R38S = biological target: T5, α-Gal A mutant form R38S (Homo sapiens, UniProt P06280, R38S)
T5 construct: expressed in transfected cells; host or cells: HEK-293
T5 sequence (P06280 32-429 R38S): T1 sequence (P06280 32-429 A160D) with R7S, D129A
Description: as §1, §2

[4] = 10 μM migalastat minus baseline
[5] = HEK-293 lysates, 10 μM migalastat 5 days, mean ± SEM

## OC[C@H]1NC[C@H](O)[C@@H](O)[C@H]1O [migalastat, (2R,3S,4R,5S)-2-(hydroxymethyl) piperdine-3,4,5-triol]
[1]; [4]
  Absolute increase (% WT): 25.9 % WT
[1]; 10 μM migalastat ÷ baseline
  Relative increase: 1.83
[1]; [5]
  10 μM migalastat α-Gal A activity: 18238 ± 1048 nmol/mg/h
  10 μM migalastat α-Gal A activity (% WT): 56 ± 4.1 % WT
[2]; [4]
  Absolute increase (% WT): 45.6 % WT
[2]; 10 μM migalastat ÷ baseline
  Relative increase: 1.56
[2]; [5]
  10 μM migalastat α-Gal A activity: 43772 ± 4156 nmol/mg/h
  10 μM migalastat α-Gal A activity (% WT): 129.6 ± 9.7 % WT
[3]; [4]
  Absolute increase (% WT): 61.5 % WT
[3]; 10 μM migalastat ÷ baseline
  Relative increase: 1.94
[3]; [5]
  10 μM migalastat α-Gal A activity: 45804 ± 2927 nmol/mg/h
  10 μM migalastat α-Gal A activity (% WT): 128.1 ± 8.2 % WT
α-Gal A mutant form N53Y; [4]
  Absolute increase (% WT): 34.5 % WT
α-Gal A mutant form N53Y; 10 μM migalastat ÷ baseline
  Relative increase: 2.04
α-Gal A mutant form N53Y; [5]
  10 μM migalastat α-Gal A activity: 22871 ± 2192 nmol/mg/h
  10 μM migalastat α-Gal A activity (% WT): 68.5 ± 2.6 % WT
α-Gal A mutant form R38S; [4]
  Absolute increase (% WT): 26.6 % WT
α-Gal A mutant form R38S; 10 μM migalastat ÷ baseline
  Relative increase: 1.29
α-Gal A mutant form R38S; [5]
  10 μM migalastat α-Gal A activity: 30928 ± 1484 nmol/mg/h
  10 μM migalastat α-Gal A activity (% WT): 100 ± 9.3 % WT
